Where two headings read alike, the source gives them in different places.

The test system of the test is HBV (hepatitis B virus) in HepG2.2.15 cells. The experiment in a line: Cell-based anti-viral activity assay (HBV DNA in supernatant by quantitative PCR). Here is the method: Cell-Based Anti-Viral Activity Assay
The Invention determined the anti-HBV (hepatitis B virus) activity of compounds in HepG2.2.15 cells (Table 1).
HepG2.2.15 is a cell line stably transfected with the HBV genome. HepG2.2.15 cells were cultured in DMEM (1X) with 10% fetal bovine serum (Corning), 100 U penicillin (Gibico), 100 μg/mL streptomycin (Gibico), 250 μg/mL geneticin (Gibco) and GlutaMAXTM-I medium (Invitrogen).
HepG2.2.15 cells were seeded into 96-well plates (4×10^4 cells in 100 μL of medium per well) and incubated overnight at 37° C. The test compounds were weighed and prepared as 10 mM stock solution with DMSO. The stock solutions of the compounds were diluted by a gradient of 3.16 times with DMSO, and then diluted by a gradient of 3.16 times with medium for 50 times. Finally, the diluted compound solutions were added to the cell plate with a total volume of 200 μL and the final DMSO concentration was 1%. The 96-well culture plates loaded with drugs were transferred to an incubator at 37° C. for 5 days. […] nucleic acid releasing agent was added to 96-well PCR reaction plate, and 2 μL of cell supernatant or HBV quantitative standards were added to the corresponding Wells. Centrifuged the plates to fully mix, and incubated at room temperature for 10 min to fully release nucleic acid. Quantified HBV DNA content by fluorescent quantitative PCR (CFX Connect Real-Time System) using Sanxiang Bio hepatitis B virus fluorescent quantitative diagnostic kit.
The standard curve was established by taking the logarithm of the copy number (IU/ml) of the HBV standard sample (log 10) as the abscordinate and the corresponding CT value as the ordinate. The copy number of the sample was calculated according to the corresponding CT of the positive sample and the standard curve, and the percentage of inhibition rate was calculated as follows: • % Inhibition=100-100*(sample HBV copy number−high concentration reference compound column HBV copy number)/DMSO column HBV copy number−high concentration reference compound column HBV copy number).

Setting [1] is: 120 h, anti-HBV activity, HepG2.2.15 cells, 5 days, read-out: EC50 (HepG2.2.15).

The term EC50 denotes the concentration at which the effect is half-maximal. Take `CCOC(=O)C1=C(CN2CCN3C(=O)N(C45CC(COC)(C4)C5)C[C@@H]3C2)NC(c2nccs2)=N[C@H]1c1cccc(F)c1C` [Compound 3, Ethyl (S)-4-(3-Fluoro-2-Methylphenyl)-6-(((S)-2-(3-(Methoxymethyl)Bicyclo[1.1.1]Pentan-1-Yl)-3-Oxohexahydroimidazo[1,5-a]Pyrazin-7(1H)-Yl)Methyl)-2-(Thiazol-2-Yl)-1,4-Dihydropyrimidine-5-Carboxylate]: the EC50 under setting [1] worked out at 4 nM. As for `CCOC(=O)C1=C(CN2CCN3C(=O)N(C45CC(CC(C)(C)C(=O)O)(C4)C5)C[C@@H]3C2)NC(c2nccs2)=N[C@H]1c1cccc(F)c1C` [Compound 4], the half-maximal effective concentration (EC50) under setting [1] stood at 8 nM.

Take `CCOC(=O)C1=C(CN2CCN3C(=O)N(C45CC(C(=O)N6CCCC6)(C4)C5)C[C@@H]3C2)NC(c2nccs2)=N[C@H]1c1cccc(F)c1C` [Compound 6, Ethyl (S)-4-(3-Fluoro-2-Methylphenyl)-6-(((S)-3-Oxo-2-(3-(Pyrrolidine-1-Carbonyl)Bicyclo[1.1.1]Pentan-1-Yl)Hexahydroimidazo[1,5-a]Pyrazin-7(1H)-Yl)Methyl)-2-(Thiazol-2-Yl)-1,4-Dihydropyrimidine-5-Carboxylate]: under setting [1], the concentration for a half-maximal effect (EC50) was 8 nM. The same measure, in the same setting: for `CCOC(=O)C1=C(CN2CCN3C(=O)N(C45CC(C(N)=O)(C4)C5)C[C@@H]3C2)NC(c2nccs2)=N[C@H]1c1cccc(F)c1C` [Compound 7, ethyl (S)-6-(((S)-2-(3-Carbamoylbicyclo[1.1.1]Pentan-1-Yl)-3-Oxohexahydroimidazo[1,5-a]Pyrazin-7(1H)-Yl)Methyl)-4-(3-Fluoro-2-Methylphenyl)-2-(Thiazol-2-Yl)-1,4-Dihydropyrimidine-5-Carboxylate] the value was 7 nM.

For `CCOC(=O)C1=C(CN2CCN3C(=O)N(C45CC(CS(C)(=O)=O)(C4)C5)C[C@@H]3C2)NC(c2nccs2)=N[C@H]1c1cccc(F)c1C` [Compound 8, Ethyl (S)-4-(3-Fluoro-2-Methylphenyl)-6-(((S)-2-(3-((Methylsulfonyl)Methyl)Bicyclo[1.1.1]Pentan-1-Yl)-3-Oxohexahydroimidazo[1,5-a]Pyrazin-7(1H)-Yl)Methyl)-2-(Thiazol-2-Yl)-1,4-Dihydropyrimidine-5-Carboxylate], the EC50 under setting [1] was 4 nM. The same measure, in the same setting: the result for `CCOC(=O)C1=C(CN2CCN3C(=O)N(C45CC(NS(C)(=O)=O)(C4)C5)C[C@@H]3C2)NC(c2nccs2)=N[C@H]1c1cccc(F)c1C` [Compound 9, Ethyl (S)-4-(3-Fluoro-2-Methylphenyl)-6-(((S)-2-(3-(Methylsulfonamido)Bicyclo[1.1.1]Pentan-1-Yl)-3-Oxohexahydroimidazo[1,5-a]Pyrazin-7(1H)-Yl)Methyl)-2-(Thiazol-2-Yl)-1,4-Dihydropyrimidine-5-Carboxylate] reads 4 nM.

In the case of `CCOC(=O)C1=C(CN2CCN3C(=O)N(C45CC(NC(C)=O)(C4)C5)C[C@@H]3C2)NC(c2nccs2)=N[C@H]1c1cccc(F)c1C` [Compound 10, Ethyl (S)-6-(((S)-2-(3-Acetamidobicyclo[1.1.1]Pentan-1-Yl)-3-Oxohexahydroimidazo[1,5-a]Pyrazin-7(1H)-Yl)Methyl)-4-(3-Fluoro-2-Methylphenyl)-2-(Thiazol-2-Yl)-1,4-Dihydropyrimidine-5-Carboxylate], the half-maximal effective concentration (EC50) under setting [1] was found to be 8 nM. Same read-out and setting: for `CCOC(=O)C1=C(CN2CCN3C(=O)N(C45CC(N(C)S(C)(=O)=O)(C4)C5)C[C@@H]3C2)NC(c2nccs2)=N[C@H]1c1cccc(F)c1C` [Compound 11, Ethyl (S)-4-(3-Fluoro-2-Methylphenyl)-6-(((S)-2-(3-(N-Methylmethylsulfonamido)Bicyclo[1.1.1]Pentan-1-Yl)-3-Oxohexahydroimidazo[1,5-a]Pyrazin-7(1H)-Yl)Methyl)-2-(Thiazol-2-Yl)-1,4-Dihydropyrimidine-5-Carboxylate] the value was 4 nM; for `CCOC(=O)C1=C(CN2CCN3C(=O)N(C45CC(N(C)C(C)=O)(C4)C5)C[C@@H]3C2)NC(c2nccs2)=N[C@H]1c1cccc(F)c1C` [Compound 12, Ethyl (S)-4-(3-Fluoro-2-Methylphenyl)-6-(((S)-2-(3-(N-Methylacetamido)Bicyclo[1.1.1]Pentan-1-Yl)-3-Oxohexahydroimidazo[1,5-a]Pyrazin-7(1H)-Yl)Methyl)-2-(Thiazol-2-Yl)-1,4-Dihydropyrimidine-5-Carboxylate], 3 nM; for `CCOC(=O)C1=C(CN2CCN3C(=O)N(C45CC(N6CCCC6=O)(C4)C5)C[C@@H]3C2)NC(c2nccs2)=N[C@H]1c1cccc(F)c1C` [Compound 13, Ethyl (S)-4-(3-Fluoro-2-Methylphenyl)-6-(((S)-3-Oxo-2-(3-(2-Oxopyrrolidin-1-Yl)Bicyclo[1.1.1]Pentan-1-Yl) Hexahydroimidazo[1,5-a]Pyrazin-7(1H)-Yl)Methyl)-2-(Thiazol-2-Yl)-1,4-Dihydropyrimidine-5-Carboxylate], 8 nM.

On to `CCOC(=O)C1=C(CN2CCN3C(=O)N(C45CC(CNS(C)(=O)=O)(C4)C5)C[C@@H]3C2)NC(c2nccs2)=N[C@H]1c1cccc(F)c1C` [Compound 14, Ethyl (S)-4-(3-Fluoro-2-Methylphenyl)-6-(((S)-2-(3-(Methylsulfonamidomethyl)Bicyclo[1.1.1]Pentan-1-Yl)-3-Oxohexahydroimidazo[1,5-a]Pyrazin-7(1H)-Yl)Methyl)-2-(Thiazol-2-Yl)-1,4-Dihydropyrimidine-5-Carboxylate], for which the EC50 under setting [1] is 4 nM. As for `CCOC(=O)C1=C(CN2CCN3C(=O)N(C45CC(CNC(C)=O)(C4)C5)C[C@@H]3C2)NC(c2nccs2)=N[C@H]1c1cccc(F)c1C` [Compound 15, ethyl (S)-6-(((S)-2-(3-(Acetamidomethyl)Bicyclo[1.1.1]Pentan-1-Yl)-3-Oxohexahydroimidazo[1,5-a]Pyrazin-7(1H)-Yl)Methyl)-4-(3-Fluoro-2-Methylphenyl)-2-(Thiazol-2-Yl)-1,4-Dihydropyrimidine-5-Carboxylate], the EC50 under setting [1] was 4 nM. Take `CCOC(=O)C1=C(CN2CCN3C(=O)N(C45CC(CP(=O)(OCC)OCC)(C4)C5)C[C@@H]3C2)NC(c2nccs2)=N[C@H]1c1cccc(F)c1C` [Compound 16, Ethyl (S)-6-(((S)-2-(3-((Diethoxyphosphoryl)Methyl)Bicyclo[1.1.1]Pentan-1-Yl)-3-Oxohexahydroimidazo[1,5-a]Pyrazin-7(1H)-Yl)Methyl)-4-(3-Fluoro-2-Methylphenyl)-2-(Thiazol-2-Yl)-1,4-Dihydropyrimidine-5-Carboxylate]: under “HepG2.2.15, 120 h, read-out: EC50 (HepG2.2.15, nM)”, the EC50 came out at 9 nM. `CCOC(=O)C1=C(CN2CCN3C(=O)N(C45CC(N6CCCS6(=O)=O)(C4)C5)C[C@@H]3C2)NC(c2nccs2)=N[C@H]1c1cccc(F)c1C` [Compound 19, Ethyl (S)-6-(((S)-2-(3-(1,1-Dioxidoisothiazolidin-2-Yl)Bicyclo[1.1.1]Pentan-1-Yl)-3-Oxohexahydroimidazo[1,5-a]Pyrazin-7(1H)-Yl)Methyl)-4-(3-Fluoro-2-Methylphenyl)-2-(Thiazol-2-Yl)-1,4-Dihydropyrimidine-5-Carboxylate]: the EC50 under setting [1] is 3 nM. Regarding `CCOC(=O)C1=C(CN2CCN3C(=O)N(C45CC(CC#N)(C4)C5)C[C@@H]3C2)NC(c2nccs2)=N[C@H]1c1cccc(F)c1C` [Compound 20, Ethyl (S)-6-(((S)-2-(3-(Cyanomethyl)Bicyclo[1.1.1]Pentan-1-Yl)-3-Oxohexahydroimidazo[1,5-a]Pyrazin-7 (1H)-Yl)Methyl)-4-(3-Fluoro-2-Methylphenyl)-2-(Thiazol-2-Yl)-1,4-Dihydropyrimidine-5-Carboxylate], the EC50 under setting [1] worked out at 3 nM. Still for that read-out and setting: the result for `CCOC(=O)C1=C(CN2CCN3C(=O)N(C45CC(NS(N)(=O)=O)(C4)C5)C[C@@H]3C2)NC(c2nccs2)=N[C@H]1c1cccc(F)c1C` [Compound 21, Ethyl (S)-4-(3-Fluoro-2-Methylphenyl)-6-(((S)-3-Oxo-2-(3-(Sulfamoylamino)Bicyclo[1.1.1]Pentan-1-Yl)Hexahydroimidazo[1,5-a]Pyrazin-7(1H)-Yl)Methyl)-2-(Thiazol-2-Yl)-1,4-Dihydropyrimidine-5-Carboxylate] reads 15 nM; that for `CCOC(=O)C1=C(CN2CCN3C(=O)N(C45CC(CNS(=O)(=O)C6CC6)(C4)C5)C[C@@H]3C2)NC(c2nccs2)=N[C@H]1c1cccc(F)c1C` [Compound 23], 4 nM. Same read-out and setting: for `CCOC(=O)C1=C(CN2CCN3C(=O)N(C45CC(CNS(N)(=O)=O)(C4)C5)C[C@@H]3C2)NC(c2nccs2)=N[C@H]1c1cccc(F)c1C` [Compound 24, Ethyl (S)-4-(3-Fluoro-2-Methylphenyl)-6-(((S)-3-Oxo-2-(3-((Sulfamoylamino)Methyl)Bicyclo[1.1.1]Pentan-1-Yl)Hexahydroimidazo[1,5-a]Pyrazin-7(1H)-Yl)Methyl)-2-(Thiazol-2-Yl)-1,4-Dihydropyrimidine-5-Carboxylate] the value was 9 nM.
